Measured values taken from PubChem BioAssay (NCI).
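Results reflect a 48-hour exposure of cells in 96-well plates to compound at five concentrations. TGI is the concentration that stops growth completely.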

Columns and labels:
Test in all cases: growth of human tumour cells (NCI), 48 h
[1] = tested on: OVCAR-5 ovarian
[2] = tested on: HCC-2998 colon
[3] = tested on: SNB-19 CNS
[4] = tested on: NCI-H460 lung
[5] = tested on: SK-MEL-2 melanoma
[6] = tested on: OVCAR-3 ovarian
[7] = tested on: CCRF-CEM leukemia
[8] = tested on: HCT-15 colon
[9] = tested on: MOLT-4 leukemia
[10] = tested on: SF-268 CNS
[11] = tested on: SK-OV-3 ovarian
[12] = tested on: SF-539 CNS
[13] = tested on: CAKI-1 renal
[14] = tested on: PC-3 prostate
[15] = tested on: MDA-MB-231 breast
[16] = tested on: MDA-MB-435
[17] = tested on: HS 578T breast

Row | Structure (SMILES) | TGI [1] | TGI [2] | TGI [3] | TGI [4] | TGI [5] | TGI [6] | TGI [7] | TGI [8] | TGI [9] | TGI [10] | TGI [11] | TGI [12] | TGI [13] | TGI [14] | TGI [15] | TGI [16] | TGI [17]
1 | C/C(=N\NC(=S)NC(CCC(=O)O)C(=O)O)c1cnccn1 (stereo not drawn) | > 100 µM | > 100 µM | > 100 µM | > 100 µM | > 100 µM | > 100 µM | > 100 µM | > 100 µM | > 100 µM | > 100 µM | > 100 µM | > 100 µM | – | – | – | – | –
2 | O=C(Cc1ccc([N+](=O)[O-])c([N+](=O)[O-])c1CC(=O)C(=O)Nc1cc(Cl)ccc1Cl)C(=O)Nc1cc(Cl)ccc1Cl | > 100 µM | > 100 µM | > 100 µM | > 100 µM | > 100 µM | > 100 µM | > 100 µM | 45.1 µM | > 100 µM | > 100 µM | > 100 µM | > 100 µM | > 100 µM | – | – | – | –
3 | CCN(CC)CCC1(C2CCCCC2)CCC(=O)NC1=O (stereo not drawn) | > 100 µM | > 100 µM | > 100 µM | > 100 µM | > 100 µM | > 100 µM | > 100 µM | > 100 µM | > 100 µM | > 100 µM | > 100 µM | > 100 µM | > 100 µM | – | – | – | –
4 | CCOc1ccc(/C=C(\Cl)c2ccc(OC)cc2)cc1 | – | > 100 µM | > 100 µM | – | – | – | > 100 µM | > 100 µM | > 100 µM | > 100 µM | > 100 µM | > 100 µM | – | – | – | – | –
5 | COc1ccccc1-n1c(N)c2c(C)c(-c3ccccc3)[nH]c2nc1=S | > 100 µM | > 100 µM | > 100 µM | > 100 µM | > 100 µM | > 100 µM | > 100 µM | > 100 µM | > 100 µM | – | – | > 100 µM | > 100 µM | – | – | – | –
6 | COC(=O)n1c(C)c(C=O)c2ccc(OC)cc21 | > 100 µM | 55.8 µM | > 100 µM | > 100 µM | > 100 µM | > 100 µM | > 100 µM | 82.7 µM | > 100 µM | – | > 100 µM | 55.2 µM | 87.9 µM | > 100 µM | > 100 µM | 47.2 µM | –
7 | CCOC(=O)CCC(NC(=O)c1ccc(N=Cc2nc3ccccc3nc2-c2ccccc2)cc1)C(=O)OCC (stereo not drawn) | > 100 µM | > 100 µM | > 100 µM | > 100 µM | > 100 µM | > 100 µM | > 100 µM | > 100 µM | > 100 µM | > 100 µM | > 100 µM | > 100 µM | > 100 µM | – | – | – | –
8 | CC/C(=N/O)c1ccc2[nH]c3c(C)cc([N+](=O)[O-])c(C)c3c2c1 | > 100 µM | > 100 µM | > 100 µM | > 100 µM | > 100 µM | > 100 µM | > 100 µM | > 100 µM | > 100 µM | > 100 µM | – | > 100 µM | > 100 µM | – | – | – | –
9 | Cc1ccc(NC(=O)CSc2nnc(Cc3ccccc3)o2)cc1 | > 100 µM | > 100 µM | > 100 µM | > 100 µM | > 100 µM | > 100 µM | > 100 µM | > 100 µM | > 100 µM | > 100 µM | > 100 µM | > 100 µM | > 100 µM | – | – | – | –
10 | CC1(C)OCN(c2ccc(S(N)(=O)=O)cc2)Cn2c1nc1ccccc12 | – | > 100 µM | > 100 µM | > 100 µM | > 100 µM | > 100 µM | > 100 µM | > 100 µM | > 100 µM | > 100 µM | > 100 µM | > 100 µM | – | – | – | – | –
11 | C#CCNC(=O)NCCCCC(NC(C)=O)C(=O)NCc1ccccc1 (stereo not drawn) | > 100 µM | > 100 µM | > 100 µM | > 100 µM | – | > 100 µM | > 100 µM | > 100 µM | > 100 µM | > 100 µM | > 100 µM | > 100 µM | > 100 µM | – | – | – | –
12 | COc1cc(C2c3cc4c(cc3OC(NCCc3ccccc3)C2C)OCO4)cc(OC)c1OC (stereo not drawn) | > 100 µM | 0.85 µM | > 100 µM | > 52.1 µM | > 42.1 µM | – | > 62.3 µM | > 40.9 µM | > 37.7 µM | > 39.3 µM | > 100 µM | 1.23 µM | 0.939 µM | – | 1.02 µM | 2.18 µM | 0.425 µM
13 | CCN(CC)CCCNc1ccc([N+](=O)[O-])c2nc3ccc(OC)cc3c(N)c12 | > 10 µM | – | > 6.29 µM | 3.32 µM | > 10 µM | > 6.31 µM | 5.71 µM | 3.15 µM | 3.86 µM | 3.57 µM | > 5.48 µM | 3.46 µM | > 10 µM | 3.31 µM | 3.29 µM | 3.12 µM | 2.68 µM
14 | Cc1nc(-n2nc(-c3ccccc3)cc2-c2ccccc2)sc1C(=O)/C=C/c1ccc(Cl)c(Cl)c1 | 66.2 µM | > 100 µM | 42.1 µM | > 100 µM | > 100 µM | 54.2 µM | 69.7 µM | 39.9 µM | 52.5 µM | > 100 µM | > 100 µM | 44.5 µM | 78.7 µM | – | – | – | –
15 | Clc1ccc(CCc2ccncn2)c(Cl)c1 | > 100 µM | > 100 µM | > 100 µM | > 100 µM | > 100 µM | > 100 µM | – | > 100 µM | > 100 µM | > 100 µM | > 100 µM | > 100 µM | > 100 µM | – | – | – | –
16 | COc1ccccc1-n1c(NN)nc2ccc(Br)cc2c1=O | 68.8 µM | > 100 µM | > 100 µM | > 100 µM | > 100 µM | > 100 µM | > 100 µM | > 100 µM | > 100 µM | > 100 µM | 99.3 µM | 84.5 µM | > 100 µM | – | – | – | –
17 | CCCCNC(=NCc1ccccc1)NC#N | > 100 µM | > 100 µM | > 100 µM | > 100 µM | > 100 µM | > 100 µM | > 100 µM | > 100 µM | > 100 µM | > 100 µM | > 100 µM | > 100 µM | > 100 µM | – | – | – | –
18 | CCOC(=O)C(/C(=N\NC(=O)OC)C(=O)Nc1cc(OC)ccc1OC)c1cnc2ccccc2n1 (stereo not drawn) | – | > 100 µM | – | > 100 µM | – | – | > 100 µM | > 100 µM | – | > 100 µM | > 100 µM | > 100 µM | > 100 µM | – | – | – | –
19 | C[C@@H]1OC2(O)[C@H]3CCCN3S(=O)(=O)CCN2C1=O (stereo partly drawn) | > 100 µM | > 100 µM | > 100 µM | > 100 µM | – | > 100 µM | > 100 µM | > 100 µM | > 100 µM | > 100 µM | > 100 µM | > 100 µM | > 100 µM | – | – | – | –
20 | COc1cc(OC)c2c(=O)c3c([N+](=O)[O-])cccc3n(C)c2c1 | > 100 µM | > 100 µM | > 100 µM | > 100 µM | > 100 µM | > 100 µM | > 100 µM | > 100 µM | > 100 µM | > 100 µM | > 100 µM | > 100 µM | > 100 µM | – | – | – | –
21 | O=C(N/N=C(/c1nc2ccc([N+](=O)[O-])cc2[nH]c1=O)C(O)c1ccc([N+](=O)[O-])cc1)c1ccncc1 (stereo not drawn) | > 100 µM | > 100 µM | – | > 100 µM | > 100 µM | – | > 100 µM | > 100 µM | > 100 µM | > 100 µM | > 100 µM | > 100 µM | > 100 µM | – | – | – | –
22 | Oc1cc(CN2CCOCCOCCOCCOCC2)c(O)cc1CN1CCOCCOCCOCCOCC1 | 61.6 µM | > 100 µM | > 100 µM | > 100 µM | > 93.4 µM | > 100 µM | 44 µM | > 67.4 µM | 52.6 µM | 96.8 µM | > 100 µM | > 100 µM | 38.9 µM | – | – | – | –
23 | C/C(=N/NC(=O)C[n+]1ccccc1)C(CN(CC(C)C)CC(C)C)C(=O)Nc1ccc(C)cc1C (stereo not drawn) | > 100 µM | > 100 µM | > 100 µM | > 100 µM | > 100 µM | – | > 100 µM | – | > 100 µM | > 100 µM | > 100 µM | > 100 µM | – | – | – | – | –
24 | CCc1[nH]c(=O)c2oc3cc4ccccc4cc3c2c1C(=O)O | > 10 µM | > 10 µM | > 10 µM | > 10 µM | > 10 µM | > 10 µM | – | > 10 µM | – | > 10 µM | – | > 10 µM | – | > 10 µM | > 10 µM | – | > 10 µM
25 | C[C@@H]1O[C@]2(O)[C@@H]3CCCN3S(=O)(=O)CCN2C1=O | > 100 µM | > 100 µM | > 100 µM | > 100 µM | – | > 100 µM | > 100 µM | > 100 µM | > 100 µM | > 100 µM | > 100 µM | > 100 µM | > 100 µM | – | – | – | –
26 | C[C@@]1(Cc2ccccc2)C(=O)N2[C@@H](CO)C(c3ccccc3)O[C@]2(C)c2ccccc21 (stereo partly drawn) | > 100 µM | – | > 100 µM | – | > 100 µM | > 100 µM | > 100 µM | > 100 µM | > 100 µM | > 100 µM | > 100 µM | > 100 µM | > 100 µM | – | – | – | –
27 | CC12C(=C(C#N)C(=N)N1c1ccc(Cl)c(Cl)c1)C=C(O)CC2SCCS(=O)(=O)O (stereo not drawn) | – | > 100 µM | > 100 µM | – | > 100 µM | > 100 µM | > 100 µM | > 100 µM | > 100 µM | > 100 µM | > 100 µM | > 100 µM | > 100 µM | – | – | – | –
